According to PubChem BioAssay (NCI):
“And” between values parts separate entries of the source, which are not always exact repeats. Identical values can stand only once.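 Growth conditions: 96-well plates. Treatment: test compound, 48 hours, 5 concentrations. Analysis: linear interpolation between bracketing concentrations; unreached endpoints set to highest concentration. Here, GI50 denotes the concentration required for 50% inhibition of growth. The concentration for full growth arrest is given as TGI.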

Key:
Experiment in all cases: DTP human tumour cell line panel, 48 h
[1] = system: PC-3 prostate
[2] = system: RXF 393 renal
[3] = system: NCI-H23 lung
[4] = system: HCT-15 colon
[5] = system: SF-295 CNS
[6] = system: SK-MEL-2 melanoma
[7] = system: HOP-62 NSCLC
[8] = system: MDA-MB-231 breast
[9] = system: COLO 205 colon
[10] = system: HOP-92 NSCLC
[11] = system: OVCAR-4 ovarian
[12] = system: HCT-116 colon
[13] = system: SF-268 CNS
[14] = system: MCF7 breast
[15] = system: SW-620 colon
[16] = system: NCI/ADR-RES ovarian
[17] = system: NCI-H460 lung
[18] = system: K-562 leukemia
[19] = system: UO-31 renal
[20] = system: SN12C renal
[21] = system: MDA-MB-435
[22] = system: SK-OV-3 ovarian
[23] = system: EKVX NSCLC
[24] = system: UACC-257 melanoma
[25] = system: MALME-3M melanoma
[26] = system: KM12 colon
[27] = system: SNB-75 CNS
[28] = system: A549 NSCLC
[29] = system: NCI-H522 lung
[30] = system: U251 CNS
[31] = system: MOLT-4 leukemia
[32] = system: CCRF-CEM leukemia
[33] = system: CAKI-1 renal
[34] = system: TK-10 renal
[35] = system: SR leukemia
[36] = system: HCC-2998 colon
[37] = system: RPMI-8226 leukemia
[38] = system: SK-MEL-28 melanoma
[39] = system: OVCAR-5 ovarian
[40] = system: ACHN renal
[41] = system: SNB-19 CNS
[42] = system: UACC-62 melanoma
[43] = system: M14 melanoma
[44] = system: HT29 colon
[45] = system: IGROV1 ovarian
[46] = system: A498 renal
[47] = system: LOX IMVI melanoma
[48] = system: SF-539 CNS
[49] = system: T-47D breast
[50] = system: BT-549 breast
[51] = system: 786-0 renal
[52] = system: MDA-N
[53] = system: DU-145 prostate
[54] = system: HS 578T breast
[55] = system: SK-MEL-5 melanoma
[56] = system: NCI-H226 lung
[57] = system: OVCAR-8 ovarian
[58] = system: OVCAR-3 ovarian
[59] = system: HL-60(TB) leukemia

CCOC(=O)/C=C/C1OC(C)(C)OC1/C=C/C(=O)OCC (centres undefined)
TGI [1]: > 100 µM
TGI [2]: > 100 µM
TGI [3]: > 100 µM
TGI [4]: 64.2 µM
TGI [5]: > 100 µM
TGI [6]: > 100 µM
TGI [7]: > 100 µM
TGI [8]: > 100 µM
TGI [9]: > 100 µM
TGI [10]: 41.8 µM
TGI [11]: > 100 µM
TGI [12]: > 100 µM
TGI [13]: > 100 µM
TGI [14]: > 100 µM
TGI [15]: 49.2 µM
TGI [16]: > 100 µM
TGI [17]: 48.9 µM
TGI [18]: 48.4 µM
TGI [19]: > 100 µM
TGI [20]: > 100 µM
TGI [21]: > 100 µM
TGI [22]: > 100 µM
TGI [23]: 94.9 µM
TGI [24]: > 100 µM
TGI [25]: > 100 µM
TGI [26]: 70.7 µM
TGI [27]: > 100 µM
TGI [28]: > 100 µM
TGI [29]: 51.1 µM
TGI [30]: > 100 µM
TGI [31]: 63.3 µM
TGI [32]: 57.7 µM
TGI [33]: 54.7 µM
TGI [34]: > 100 µM
TGI [35]: 43.3 µM
TGI [36]: 47.4 µM
TGI [37]: 47.7 µM
TGI [38]: 87.7 µM
TGI [39]: > 100 µM
TGI [40]: > 100 µM
TGI [41]: > 100 µM
TGI [42]: > 100 µM
TGI [43]: > 100 µM
TGI [44]: 57.6 µM
TGI [45]: > 100 µM
TGI [46]: > 100 µM
TGI [47]: > 100 µM
TGI [48]: > 100 µM
TGI [49]: > 100 µM
TGI [50]: > 100 µM
TGI [51]: > 100 µM
TGI [52]: > 100 µM
TGI [53]: > 100 µM
TGI [54]: > 100 µM
TGI [55]: > 100 µM
TGI [56]: > 100 µM
TGI [57]: 82.7 µM

CC(C)C(=O)NCC[C@@H](CNC(=O)OC(C)(C)C)NC(=O)OC(C)(C)C
TGI [1]: > 100 µM
TGI [2]: > 100 µM
TGI [3]: > 100 µM
TGI [4]: > 100 µM
TGI [5]: > 100 µM
TGI [6]: > 100 µM
TGI [7]: > 100 µM
TGI [8]: > 100 µM
TGI [9]: > 100 µM
TGI [10]: > 100 µM
TGI [11]: > 100 µM
TGI [12]: > 100 µM
TGI [13]: > 100 µM
TGI [14]: > 100 µM
TGI [15]: > 100 µM
TGI [16]: > 100 µM
TGI [17]: > 100 µM
TGI [18]: > 100 µM
TGI [19]: > 100 µM
TGI [20]: > 100 µM
TGI [21]: > 100 µM
TGI [22]: > 100 µM
TGI [23]: > 100 µM
TGI [24]: > 100 µM
TGI [25]: > 100 µM
TGI [26]: > 100 µM
TGI [27]: > 100 µM
TGI [28]: > 100 µM
TGI [29]: > 100 µM
TGI [30]: > 100 µM
TGI [31]: > 100 µM
TGI [32]: > 100 µM
TGI [33]: > 100 µM
TGI [34]: > 100 µM
TGI [35]: > 100 µM
TGI [36]: > 100 µM
TGI [38]: > 100 µM
TGI [39]: > 100 µM
TGI [40]: > 100 µM
TGI [41]: > 100 µM
TGI [58]: > 100 µM
TGI [42]: > 100 µM
TGI [43]: > 100 µM
TGI [44]: > 100 µM
TGI [45]: > 100 µM
TGI [46]: > 100 µM
TGI [48]: > 100 µM
TGI [49]: > 100 µM
TGI [50]: > 100 µM
TGI [51]: > 100 µM
TGI [52]: > 100 µM
TGI [53]: > 100 µM
TGI [54]: > 100 µM
TGI [55]: > 100 µM
TGI [56]: > 100 µM
TGI [57]: > 100 µM

CCOC(=O)c1cc2c([nH]1)c(OC(C)=O)cc1c2ccn1Cc1ccccc1
TGI [1]: > 100 µM
TGI [2]: > 100 µM
TGI [3]: > 100 µM
TGI [4]: > 100 µM
TGI [5]: > 100 µM
TGI [6]: > 100 µM
TGI [7]: > 100 µM
TGI [8]: > 100 µM
TGI [9]: > 100 µM
TGI [10]: > 100 µM
TGI [11]: > 100 µM
TGI [12]: > 100 µM
TGI [13]: > 100 µM
TGI [14]: > 100 µM
TGI [15]: > 100 µM
TGI [16]: > 100 µM
TGI [17]: > 100 µM
TGI [18]: > 100 µM
TGI [19]: > 100 µM
TGI [20]: > 100 µM
TGI [21]: > 100 µM
TGI [22]: > 100 µM
TGI [23]: > 100 µM
TGI [24]: > 100 µM
TGI [25]: > 100 µM
TGI [26]: > 100 µM
TGI [27]: > 100 µM
TGI [28]: > 100 µM
TGI [30]: > 100 µM
TGI [31]: > 100 µM
TGI [32]: > 100 µM
TGI [33]: > 100 µM
TGI [35]: > 100 µM
TGI [36]: > 100 µM
TGI [37]: > 100 µM
TGI [38]: > 100 µM
TGI [39]: > 100 µM
TGI [41]: > 100 µM
TGI [58]: > 100 µM
TGI [42]: > 100 µM
TGI [43]: > 100 µM
TGI [44]: > 100 µM
TGI [45]: > 100 µM
TGI [46]: > 100 µM
TGI [47]: > 100 µM
TGI [48]: > 100 µM
TGI [49]: > 100 µM
TGI [50]: > 100 µM
TGI [51]: > 100 µM
TGI [52]: > 100 µM
TGI [53]: > 100 µM
TGI [54]: > 100 µM
TGI [55]: > 100 µM
TGI [56]: > 100 µM
TGI [59]: > 100 µM
TGI [57]: > 100 µM

O=c1cc(/C=C/c2ccc(O)c(O)c2)cc(/C=C/c2ccc(O)c(O)c2)o1
GI50 [1]: 11 µM
TGI [1]: 19.9 µM and 27.7 µM
GI50 [2]: 3.42 µM
TGI [2]: 18.9 µM and 9.11 µM
GI50 [3]: 3.49 µM
TGI [3]: 41.9 µM and 20.8 µM
GI50 [4]: 4.47 µM
TGI [4]: 24.1 µM and 18.1 µM
GI50 [5]: 10.5 µM
TGI [5]: 19.8 µM and 22.2 µM
TGI [6]: 22.7 µM and 34.5 µM
TGI [7]: 24.8 µM and 22.7 µM
GI50 [8]: 13.3 µM
TGI [8]: 28.3 µM and 39.8 µM
GI50 [9]: 19.1 µM
TGI [9]: 24.6 µM and 34.4 µM
GI50 [10]: 5.16 µM
TGI [10]: 47.6 µM and 17.3 µM
GI50 [11]: 3.17 µM
TGI [11]: 43.5 µM and 13.8 µM
GI50 [12]: 4.17 µM
TGI [12]: 15.6 µM and 15.3 µM
GI50 [13]: 4.17 µM
TGI [13]: 16.2 µM and 16.5 µM
TGI [14]: 18.8 µM
GI50 [15]: 3.05 µM
TGI [15]: 50 µM and 12.3 µM
GI50 [16]: 12 µM
TGI [16]: 50 µM and 52.3 µM
GI50 [17]: 7.14 µM
TGI [17]: 50 µM and 21.6 µM
TGI [18]: 8.35 µM
TGI [19]: 14.6 µM
GI50 [20]: 6.06 µM
TGI [20]: 25.2 µM and 23.7 µM
GI50 [21]: 3.15 µM
TGI [21]: 50 µM and 11.6 µM
GI50 [22]: 13.1 µM
TGI [22]: 24.1 µM and 25.8 µM
TGI [23]: 15 µM and 21.9 µM
GI50 [24]: 9.98 µM
TGI [24]: 29.4 µM and 27.5 µM
GI50 [25]: 2670 nM
TGI [25]: 22.2 µM and 19.1 µM
GI50 [26]: 5 µM
TGI [26]: 16 µM and 22.7 µM
GI50 [27]: 4.3 µM
TGI [27]: 18.5 µM and 15.5 µM
GI50 [28]: 5.48 µM
TGI [28]: 50 µM and 18.9 µM
GI50 [29]: 1450 nM
GI50 [30]: 3.61 µM
TGI [30]: 14.1 µM and 12.8 µM
TGI [31]: 6.48 µM
GI50 [32]: 2530 nM
TGI [32]: 27.1 µM and 4.86 µM
GI50 [33]: 4.92 µM
TGI [33]: 31.9 µM and 14.6 µM
GI50 [34]: 9.1 µM
TGI [34]: 50 µM and 20.9 µM
GI50 [35]: 1990 nM
TGI [35]: 14.2 µM and 6.05 µM
TGI [36]: 19.3 µM
GI50 [37]: 2250 nM
TGI [37]: 14.9 µM and 6.7 µM
TGI [38]: 50 µM
GI50 [39]: 18.3 µM
TGI [39]: 24.2 µM and 42.2 µM
GI50 [40]: 4.01 µM
TGI [40]: 18.8 µM and 14.5 µM
GI50 [41]: 5.8 µM
TGI [41]: 15.7 µM and 18 µM
GI50 [58]: 4.92 µM
TGI [58]: 15.2 µM and 22 µM
GI50 [42]: 2500 nM
TGI [42]: 16.6 µM and 6.05 µM
GI50 [43]: 8.94 µM
TGI [43]: 21.6 µM and 20.8 µM
GI50 [44]: 21.5 µM
TGI [44]: 23.7 µM and 56.8 µM
GI50 [45]: 5.24 µM
TGI [45]: 37.5 µM and 18.1 µM
TGI [46]: 23.4 µM
GI50 [47]: 5.19 µM
TGI [47]: 50 µM and 19.4 µM
GI50 [48]: 3 µM
TGI [48]: 17.9 µM and 10.7 µM
GI50 [49]: 1950 nM
TGI [49]: 27.3 µM and 4.92 µM
GI50 [50]: 4.59 µM
TGI [50]: 38.1 µM and 16.8 µM
GI50 [51]: 5.85 µM
TGI [51]: 50 µM and 23.2 µM
GI50 [52]: 4.72 µM
TGI [52]: 50 µM and 17.1 µM
GI50 [53]: 5.29 µM
TGI [53]: 20.2 µM and 22.1 µM
GI50 [54]: 3.96 µM
TGI [54]: 50 µM and 34 µM
GI50 [55]: 4.75 µM
TGI [55]: 18.1 µM and 19 µM
GI50 [56]: 11 µM
TGI [56]: 35 µM and 33.4 µM
GI50 [57]: 5.5 µM
TGI [57]: 50 µM and 32 µM
